In ChEMBL document CHEMBL3991601, “The target landscape of clinical kinase drugs” (Science, 2017):
The source made the active and inactive calls. Rule as the data show it, for most assays here: actives have a measured Kd and inactives only a lower limit.

Assays:
[1] = target: T1, Mitogen-activated protein kinase 15 (Homo sapiens, UniProt Q8TD08)
T1 sequence (Q8TD08 whole entry): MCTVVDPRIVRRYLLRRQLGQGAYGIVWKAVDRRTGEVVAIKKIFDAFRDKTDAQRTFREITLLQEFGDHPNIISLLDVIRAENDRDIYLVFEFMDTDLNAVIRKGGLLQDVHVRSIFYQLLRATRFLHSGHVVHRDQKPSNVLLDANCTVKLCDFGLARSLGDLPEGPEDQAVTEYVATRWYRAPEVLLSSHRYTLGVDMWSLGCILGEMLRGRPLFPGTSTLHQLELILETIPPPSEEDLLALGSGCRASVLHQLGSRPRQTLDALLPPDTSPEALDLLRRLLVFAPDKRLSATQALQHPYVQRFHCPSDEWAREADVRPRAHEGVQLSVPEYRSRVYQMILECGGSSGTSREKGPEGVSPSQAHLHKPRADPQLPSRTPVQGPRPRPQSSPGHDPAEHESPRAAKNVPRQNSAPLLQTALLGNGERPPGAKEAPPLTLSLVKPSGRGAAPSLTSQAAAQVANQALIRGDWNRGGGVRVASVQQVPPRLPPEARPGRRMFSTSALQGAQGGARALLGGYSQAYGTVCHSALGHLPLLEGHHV

[2] = target: T2, Serine/threonine-protein kinase TAO3 (Homo sapiens, UniProt Q9H2K8)
T2 sequence (Q9H2K8 whole entry): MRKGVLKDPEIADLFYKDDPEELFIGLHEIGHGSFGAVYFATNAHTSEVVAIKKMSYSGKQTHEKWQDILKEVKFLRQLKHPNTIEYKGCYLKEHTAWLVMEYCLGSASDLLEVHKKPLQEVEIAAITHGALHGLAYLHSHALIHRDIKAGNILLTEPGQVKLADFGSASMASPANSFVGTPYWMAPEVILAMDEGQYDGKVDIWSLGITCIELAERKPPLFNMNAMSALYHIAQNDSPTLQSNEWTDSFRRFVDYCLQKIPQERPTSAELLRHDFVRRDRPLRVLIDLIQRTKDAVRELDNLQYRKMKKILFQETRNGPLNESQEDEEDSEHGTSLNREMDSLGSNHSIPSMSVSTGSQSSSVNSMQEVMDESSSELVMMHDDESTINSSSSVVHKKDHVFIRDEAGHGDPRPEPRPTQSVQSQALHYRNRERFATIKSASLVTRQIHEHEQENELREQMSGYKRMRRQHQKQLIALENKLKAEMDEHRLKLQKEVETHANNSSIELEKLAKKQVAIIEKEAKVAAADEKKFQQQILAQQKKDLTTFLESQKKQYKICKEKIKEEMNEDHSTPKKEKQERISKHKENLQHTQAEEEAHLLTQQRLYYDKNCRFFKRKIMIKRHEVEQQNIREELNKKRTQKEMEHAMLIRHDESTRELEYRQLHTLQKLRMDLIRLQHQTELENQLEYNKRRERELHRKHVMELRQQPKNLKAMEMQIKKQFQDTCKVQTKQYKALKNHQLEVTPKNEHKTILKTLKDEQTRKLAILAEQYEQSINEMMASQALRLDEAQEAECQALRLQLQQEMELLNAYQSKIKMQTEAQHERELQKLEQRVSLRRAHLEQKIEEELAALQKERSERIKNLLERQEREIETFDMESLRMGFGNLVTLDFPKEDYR

[3] = target: Serine/threonine-protein kinase SIK3 (Homo sapiens, UniProt Q9Y2K2)
[4] = target: Mitogen-activated protein kinase kinase kinase 20 (Homo sapiens, UniProt Q9NYL2)
[5] = target: T3, Activin receptor type-1 (Homo sapiens, UniProt Q04771)
T3 sequence (Q04771 whole entry): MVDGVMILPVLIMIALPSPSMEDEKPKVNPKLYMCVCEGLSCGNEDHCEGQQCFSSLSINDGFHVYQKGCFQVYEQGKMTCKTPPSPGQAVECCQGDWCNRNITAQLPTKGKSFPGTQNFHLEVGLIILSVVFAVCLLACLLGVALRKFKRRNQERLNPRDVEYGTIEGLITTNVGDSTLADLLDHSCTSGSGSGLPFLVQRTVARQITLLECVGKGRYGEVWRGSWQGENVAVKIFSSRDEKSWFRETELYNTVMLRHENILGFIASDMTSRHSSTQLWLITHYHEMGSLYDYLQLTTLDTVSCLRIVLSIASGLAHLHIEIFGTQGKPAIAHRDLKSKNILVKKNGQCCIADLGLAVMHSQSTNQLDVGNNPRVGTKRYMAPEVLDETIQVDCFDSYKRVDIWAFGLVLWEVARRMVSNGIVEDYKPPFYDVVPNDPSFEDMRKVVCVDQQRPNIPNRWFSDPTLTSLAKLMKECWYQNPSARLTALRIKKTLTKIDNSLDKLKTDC

[6] = target: T4, Serine/threonine-protein kinase A-Raf (Homo sapiens, UniProt P10398)
T4 sequence (P10398 whole entry): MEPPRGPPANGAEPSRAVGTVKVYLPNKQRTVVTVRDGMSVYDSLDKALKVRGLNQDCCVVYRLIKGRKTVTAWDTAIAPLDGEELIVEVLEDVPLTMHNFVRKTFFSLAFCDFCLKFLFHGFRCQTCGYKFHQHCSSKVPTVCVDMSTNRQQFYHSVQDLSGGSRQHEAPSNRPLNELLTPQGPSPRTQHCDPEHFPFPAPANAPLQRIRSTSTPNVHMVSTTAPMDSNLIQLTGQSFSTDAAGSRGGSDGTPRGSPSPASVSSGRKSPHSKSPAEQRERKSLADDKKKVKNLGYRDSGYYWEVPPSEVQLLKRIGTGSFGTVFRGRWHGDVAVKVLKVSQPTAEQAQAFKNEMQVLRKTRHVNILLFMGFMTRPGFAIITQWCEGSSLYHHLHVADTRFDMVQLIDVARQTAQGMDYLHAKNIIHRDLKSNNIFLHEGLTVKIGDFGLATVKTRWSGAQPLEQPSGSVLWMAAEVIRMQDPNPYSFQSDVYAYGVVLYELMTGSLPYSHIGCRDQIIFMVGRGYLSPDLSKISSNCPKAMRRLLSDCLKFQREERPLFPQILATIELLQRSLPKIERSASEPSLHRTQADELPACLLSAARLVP
Also: in the data inactive means no Kd found up to 30 µM.

Mitogen-activated protein kinase kinase kinase 20, sequence (Q9NYL2 whole entry): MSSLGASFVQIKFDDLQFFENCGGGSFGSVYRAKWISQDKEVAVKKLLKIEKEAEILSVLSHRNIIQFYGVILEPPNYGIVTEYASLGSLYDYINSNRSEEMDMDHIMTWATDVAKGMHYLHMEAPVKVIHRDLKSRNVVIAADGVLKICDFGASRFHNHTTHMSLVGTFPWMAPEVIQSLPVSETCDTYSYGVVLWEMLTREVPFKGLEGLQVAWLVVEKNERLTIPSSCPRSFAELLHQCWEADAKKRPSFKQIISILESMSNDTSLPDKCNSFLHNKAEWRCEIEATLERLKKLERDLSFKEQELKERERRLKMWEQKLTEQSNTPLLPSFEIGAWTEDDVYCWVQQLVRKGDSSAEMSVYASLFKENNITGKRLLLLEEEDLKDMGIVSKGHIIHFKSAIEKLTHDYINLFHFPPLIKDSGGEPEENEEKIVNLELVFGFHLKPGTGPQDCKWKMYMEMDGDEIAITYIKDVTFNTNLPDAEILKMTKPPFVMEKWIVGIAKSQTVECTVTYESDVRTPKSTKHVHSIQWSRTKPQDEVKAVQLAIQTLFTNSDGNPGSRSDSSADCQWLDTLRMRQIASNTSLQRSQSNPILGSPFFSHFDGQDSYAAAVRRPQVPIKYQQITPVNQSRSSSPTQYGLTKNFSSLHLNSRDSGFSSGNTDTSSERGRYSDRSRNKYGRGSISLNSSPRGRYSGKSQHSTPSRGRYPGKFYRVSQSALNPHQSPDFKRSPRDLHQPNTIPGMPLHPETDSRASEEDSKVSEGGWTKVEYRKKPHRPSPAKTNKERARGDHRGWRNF
Serine/threonine-protein kinase SIK3, sequence (Q9Y2K2 whole entry): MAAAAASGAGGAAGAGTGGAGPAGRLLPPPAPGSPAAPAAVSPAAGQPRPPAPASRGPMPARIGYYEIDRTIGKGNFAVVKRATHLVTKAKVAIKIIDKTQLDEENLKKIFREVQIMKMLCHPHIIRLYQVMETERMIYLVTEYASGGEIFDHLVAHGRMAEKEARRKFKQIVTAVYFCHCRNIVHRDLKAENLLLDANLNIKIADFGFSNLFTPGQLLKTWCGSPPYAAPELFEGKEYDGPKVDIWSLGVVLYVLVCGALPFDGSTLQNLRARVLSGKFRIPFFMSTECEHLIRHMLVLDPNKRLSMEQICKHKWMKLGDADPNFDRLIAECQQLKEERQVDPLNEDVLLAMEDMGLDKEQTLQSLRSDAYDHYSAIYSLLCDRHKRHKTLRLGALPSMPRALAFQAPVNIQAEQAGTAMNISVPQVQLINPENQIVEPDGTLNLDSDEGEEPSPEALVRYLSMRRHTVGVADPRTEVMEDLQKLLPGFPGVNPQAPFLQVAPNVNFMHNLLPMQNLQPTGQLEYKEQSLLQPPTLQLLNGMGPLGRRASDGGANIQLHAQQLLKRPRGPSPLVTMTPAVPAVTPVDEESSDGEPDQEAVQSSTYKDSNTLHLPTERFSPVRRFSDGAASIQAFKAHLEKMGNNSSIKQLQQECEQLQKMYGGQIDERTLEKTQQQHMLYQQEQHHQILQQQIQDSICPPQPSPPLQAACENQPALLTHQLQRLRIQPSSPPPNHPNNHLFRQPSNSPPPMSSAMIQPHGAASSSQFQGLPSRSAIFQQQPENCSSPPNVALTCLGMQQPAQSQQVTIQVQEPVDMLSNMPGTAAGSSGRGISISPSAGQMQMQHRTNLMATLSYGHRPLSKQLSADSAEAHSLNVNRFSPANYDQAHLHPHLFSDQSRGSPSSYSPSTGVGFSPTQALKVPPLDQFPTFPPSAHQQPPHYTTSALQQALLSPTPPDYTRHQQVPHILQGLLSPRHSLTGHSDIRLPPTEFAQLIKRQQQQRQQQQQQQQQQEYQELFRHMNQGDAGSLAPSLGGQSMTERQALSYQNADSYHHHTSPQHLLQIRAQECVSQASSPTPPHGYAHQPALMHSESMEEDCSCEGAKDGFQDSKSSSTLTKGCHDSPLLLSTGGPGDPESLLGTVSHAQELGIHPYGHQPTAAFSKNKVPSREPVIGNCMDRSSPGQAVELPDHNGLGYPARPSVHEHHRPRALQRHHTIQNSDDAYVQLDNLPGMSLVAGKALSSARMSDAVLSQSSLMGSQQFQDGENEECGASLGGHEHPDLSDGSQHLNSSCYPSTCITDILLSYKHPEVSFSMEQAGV

SMILES	Kd [1]	Kd [2]	Kd [3]	Kd [4]	Kd [5]	Kd [6]
C#Cc1cccc(Nc2ncnc3cc4c(cc23)OCCOCCOCCO4)c1 [ICOTINIB]	> 30 µM (inactive)	> 30 µM (inactive)	> 30 µM (inactive)	> 30 µM (inactive)	> 30 µM (inactive)	> 30 µM (inactive)
COc1cc2ncnc(Nc3ccc(O)cc3)c2cc1OC [WHI-P131]	> 30 µM (inactive)	> 30 µM (inactive)	> 30 µM (inactive)	> 30 µM (inactive)	> 30 µM (inactive)	> 30 µM (inactive)
Cn1c(=O)n(-c2ccc(C(C)(C)C#N)cc2)c2c3cc(-c4cnc5ccccc5c4)ccc3ncc21 [DACTOLISIB]	> 30 µM (inactive)	> 30 µM (inactive)	> 30 µM (inactive)	> 30 µM (inactive)	> 30 µM (inactive)	> 30 µM (inactive)
C=CC(=O)Nc1cc(Nc2nccc(-c3cn(C)c4ccccc34)n2)c(OC)cc1N(C)CCN(C)C [OSIMERTINIB]	> 30 µM (inactive)	> 30 µM (inactive)	> 30 µM (inactive)	> 30 µM (inactive)	> 30 µM (inactive)	> 30 µM (inactive)
FC(F)(F)c1ccc(CNc2ccc(Cc3c[nH]c4ncc(Cl)cc34)cn2)cn1 [PEXIDARTINIB]	> 30 µM (inactive)	> 30 µM (inactive)	> 30 µM (inactive)	> 30 µM (inactive)	> 30 µM (inactive)	> 30 µM (inactive)
COc1ccc2c(OCc3nnc4ccc(-c5ccccc5)nn34)ccnc2c1 [AMG-208]	> 30 µM (inactive)	> 30 µM (inactive)	> 30 µM (inactive)	> 30 µM (inactive)	> 30 µM (inactive)	> 30 µM (inactive)
O=S(=O)(c1cccc2cnccc12)N1CCCNCC1 [FASUDIL]	> 30 µM (inactive)	> 30 µM (inactive)	> 30 µM (inactive)	> 30 µM (inactive)	> 30 µM (inactive)	> 30 µM (inactive)
CCN1CCN(Cc2ccc(Nc3ncc(F)c(-c4cc(F)c5nc(C)n(C(C)C)c5c4)n3)nc2)CC1 [ABEMACICLIB]	> 30 µM (inactive)	1.72 µM (active)	> 30 µM (inactive)	> 30 µM (inactive)	> 30 µM (inactive)	> 30 µM (inactive)
CC1(COc2ccc3c(c2)ncn3-c2ccc3cccc(N4CCC(N)CC4)c3n2)COC1 [CRENOLANIB]	> 30 µM (inactive)	> 30 µM (inactive)	0.002 µM (active)	> 30 µM (inactive)	> 30 µM (inactive)	> 30 µM (inactive)
COc1cccc2cc(-c3nc([C@H]4CC[C@H](C(=O)O)CC4)n4ncnc(N)c34)[nH]c12 [OSI-027]	> 30 µM (inactive)	> 30 µM (inactive)	> 30 µM (inactive)	> 30 µM (inactive)	> 30 µM (inactive)	> 30 µM (inactive)
O=C(NC[C@H](O)CO)c1ccncc1Nc1ccc(I)cc1F [PIMASERTIB]	> 30 µM (inactive)	> 30 µM (inactive)	> 30 µM (inactive)	> 30 µM (inactive)	> 30 µM (inactive)	> 30 µM (inactive)
CN1CCN(c2nc(C3=C(c4c[nH]c5ccccc45)C(=O)NC3=O)c3ccccc3n2)CC1 [SOTRASTAURIN]	> 30 µM (inactive)	> 30 µM (inactive)	> 30 µM (inactive)	> 30 µM (inactive)	> 30 µM (inactive)	> 30 µM (inactive)
c1cc(OCCN2CCCCC2)cc(-c2n[nH]c3ccc(-c4nc[nH]n4)cc23)c1 [CC-401]	> 30 µM (inactive)	> 30 µM (inactive)	> 30 µM (inactive)	> 30 µM (inactive)	> 30 µM (inactive)	> 30 µM (inactive)
O=c1[nH]c([C@@H]2CCCN2)nc2c1oc1ccc(Cl)cc12	> 30 µM (inactive)	2.29 µM (active)	> 30 µM (inactive)	> 30 µM (inactive)	> 30 µM (inactive)	> 30 µM (inactive)
COc1ccc(-c2ccc3ncc4c(c3c2)n(-c2ccc(N3CCNCC3)c(C(F)(F)F)c2)c(=O)n4C)cn1 [BGT-226 FREE BASE]	> 30 µM (inactive)	> 30 µM (inactive)	> 30 µM (inactive)	> 30 µM (inactive)	> 30 µM (inactive)	> 30 µM (inactive)
O=S(=O)(c1cccc2c(O)nccc12)N1CCCNCC1 [HYDROXYFASUDIL]	> 30 µM (inactive)	> 30 µM (inactive)	> 30 µM (inactive)	> 30 µM (inactive)	> 30 µM (inactive)	> 30 µM (inactive)
